Data published in patent publication US20050124685A1, “Polyether brevetoxin derivatives as a treatment for neurotoxic shellfish poisoning and ciguatera fish poisoning” (priority 2003, published 2005).
Like-named read-outs stand apart in the source and are kept apart here.

Experiments:
[1] = system: isolated rat brain sodium channels (site 5); conditions: read-out: Ki, competitive displacement assay, synaptosomal binding
[2] = system: sodium channels; conditions: steady state; Purkerson-Parker, et al., 2000; cited from earlier work
[3] = system: sodium channels; experiment: Patch clamp single sodium channel currents in membrane patches; type: cell-based; conditions: 100 nM, n=6, FIG. 2C, 2D
Experimental: FIG. 2A-D illustrates single sodium channel currents in patch clamp sodium channels during successive command depolarizations to −10 mV from a command potential of −100 mV in the same membrane patch before (2A) and after (2B) exposure to β-naphthoyl-PbTx-3 (100 nM, n=6). […] The average area under the β-naphthoyl-PbTx-3 curve was 71.8±18.3% less than that of PbTx-3.
FIG. 3A-E illustrates the steady state currents in four different membrane patches at a steady state command voltage of −50 mV. 3A are control traces preceeding the test with PbTx-3, and are representative of control recordings observed in all four patches during 7.2 s of continuous observation. 3B are traces for membrane patches exposed to PbTx-3 (100 nM, […]). 3C are traces for membrane patches exposed to benzoyl-PbTx-3 (100 nM, n=6). 3D are traces for membrane patches exposed to α-naphthoyl-PbTx-3 (100 nM, n=6). 3E are traces for membrane patches exposed to β-naphthoyl-PbTx-3 (100 nM, n=6). The experimental recordings are representative of 7.2 s of continuous observation in PbTx-3 or the particular derivative.

[4] = system: isolated rat brain sodium channels (site 5); conditions: Purkerson-Parker, et al., 2000; cited from earlier work
[5] = isolated rat brain sodium channels, FIG. 1

Molecule `C=C(CO)CC1CC(O)C2(C)OC3CC4OC5CC6(C)OC7(C)CCC8OC9CC%10(C)OC%11C(C)=CC(=O)OC%11CC%10OC9CC(C)C8OC7CC6OC5(C)CC=CC4OC3CC2O1` (centres unmarked) [PbTx-3, reference compound] has a Ki [1] of 3 nM.

Molecule Benzoyl-PbTx-3 has a Ki [1, 5] of 0.2 nM.

Molecule α-Naphthoyl-PbTx-3 has a Ki [1, 5] of 4.68 nM.

For β-Naphthoyl-PbTx-3, the “opening of sodium channels” value [2] is given as “does not elicit opening of sodium channels in steady state”, the “average area under the ensemble average curve, less than that of PbTx-3” value ([3]; depolarizations to −10 mV from command potential of −100 mV) is given as 71.8±18.3% and the “peak sodium current (ensemble averages)” value ([3]; depolarizations to −10 mV from −100 mV) is given as “reduction in peak sodium current”. For the same molecule, the “displacement of native toxin from binding site” value [4] was “displaces the native toxin from its binding site” and the Ki [1, 5] was 1.06 nM.
